Assay type in all cases: cell-based, human
In one assay the test system is AKT. Description: Immunoblot of AKT activation after PPF. The settings on record: T98G and GBM43 cells treated with PPF. The method, then: (§1) FIGS. 26A, 26B, and 26C depict that PPF sensitizes GBM cells to TMZ and radiotherapy. FIG. 26A—A clonogenic assay was used to assess T98G and GBM43 cells survival after TMZ and radiation treatment. Cells were pre-treated with 5 μM PPF for 24 hours, and then either treated with 250 μM TMZ for 24 hours or exposed to 2 Gy radiation. Graph depicts the surviving fraction in the treated cells compared to vehicle (VC) treated or non-treated (NT) cells, **p<0.01. FIG. 26B—T98G glioma cells were treated with vehicle, PPF (5 μM) TMZ (250 μM) and PPF in combination with TMZ. TMZ-induced apoptosis was assayed by immunoblot analysis of cell lysates with an antibody to cleaved PARP. Immunoblotting for α-Tubulin was included as a loading control. FIG. 26C—T98G, GBM10, and GBM43 cells were treated with PPF ([…], and then immunoblotted to assess the activation of AKT and NF-κB. Immunoblotting for β-Actin is included as a loading control.
(§2) Referring now to FIGS. 26A, 26B, and 26C: Knockdown of TROY expression with shRNA decreases TMZ resistance in GBM cells in vitro (See Reference 42). […] Following combination therapy, cells were trypsinized, counted, and plated in a 6-well culture dish at densities of 100, 250, and 500 cells per well in triplicate. Cells were incubated for 12 days then fixed, stained with 0.5% crystal violet solution, and counted manually by blinded observers. […]
Background: In western blotting, separated proteins are transferred to a membrane and probed.

For assay [1], the system named is T98G, GBM10, and GBM43 cells. The assay can be described thus: Lamellipodia formation and membrane ruffling (F-actin staining). As to conditions: 5 μM PPF 1 hour prior to 10% FBS for 5 min. The method, then:
FIGS. 28A and 28B depict that PPF suppresses GBM cell membrane ruffling. FIG. 28A—GBM43 cells were preincubated with 5 μM PPF or vehicle for 1 hour prior to 10% FBS stimulation for 5 min. After FBS stimulation, cells were fixed, permeabilized, and stained for F-actin. For each experimental condition, at least 12 images were taken randomly. Arrowhead indicates membrane ruffles. FIG. 28B—Graph depicts the average lamellipodia in T98G, GBM10, and GBM43 cells in the presence or absence of 10% FBS with or without 5 μM PPF as indicated. Lamellipodia were traced using Image J software.
Referring now to FIGS. 28A and 28B: The inventors investigated lamellipodia formation and membrane ruffling. Briefly, glioma cells were plated onto 10-well glass slides pre-coated with 10 μg/ml laminin at the density of 3000 cells/well for 24 hours at 37° C. Subsequently, cells were serum starved for 16 hours. The cells were pre-incubated with 5 μM PPF or vehicle for 1 hour prior to 10% FBS stimulation for 5 min. After FBS stimulation, cells were fixed in 4% PFA, permeabilized with 0.1% Triton X-100, and incubated with Alexa Fluor® 555 Phalloidin (Invitrogen) to stain for F-actin. Slides were mounted with ProLong® reagent with DAPI and imaged using a Zeiss LSM 510 microscope. For each experimental condition, at least 12 images were randomly taken. Lamellipodia were traced using ImageJ software.

A further assay relates to T98G and GBM43 cells. The assay can be described thus: Clonogenic survival assay, PPF with TMZ or radiation. The method, then: as §1, §2
The test system of a further assay is TROY. The assay can be described thus: Western blot of TROY expression after PPF treatment. The protocol:
FIG. 24A—a Western blot analysis of TROY expression in T98G cells. Cells were treated with PPF at indicated concentrations for 6 hrs, lysed, and cell lysates immunoblotted with anti-TROY antibody. Immunoblotting of α-Tubulin in cell lysates is included as a loading control. FIG. 24B—Western blot analysis of TROY expression in T98G, GBM43, and GBM10 cells. Cells were treated with PPF at indicated concentrations for 24 hrs, lysed, and cell lysates immunoblotted with anti-TROY and α-Tubulin antibodies. FIG. 24C—Western Blot analysis of TROY expression in GBM10 and GBM43 primary glioma cells. Cells were treated with 5 μM PPF, lysed at the indicated time-points, and the lysates immunoblotted with an anti-TROY antibody. Immunoblotting of β-Actin in cell lysates is included as a loading control. FIG. […]—Western Blot analysis of T98G, GBM10 and GBM43 glioma cells treated with 5 μM PPF for 24 hours. Lysates were immunoblotted with anti-TROY, anti-TNFR1, anti-EGFR, and β-Actin antibodies.
Referring now to FIGS. 24A, 24B, 24C, and 24D: The inventors investigated if PPF could be utilized pharmacologically to decrease TROY expression in GBM cells. The long-term established cell line T98G was first utilized to test the efficacy of PPF. Cells were treated with increasing concentration of PPF, 1 to 20 μM lysed, and TROY expression assessed by immunobloting. Briefly, monolayers of cells were washed in phosphate-buffered saline (PBS) containing 1 mM phenylmethylsulfonylfluoride and 1 mM sodium orthovanadate and then lysed in 2×SDS sample buffer containing protease and phosphatase inhibitors. Protein concentrations were determined using the BCA Assay (Pierce). Thirty micrograms of total protein was loaded per lane and separated by SDS-PAGE. After transfer, the nitrocellulose membrane (Invitrogen) was blocked with either 5% nonfat-milk or 5% BSA in TB ST before addition of primary antibodies and followed with peroxidase-conjugated secondary antibody (Promega). Protein bands were detected using SuperSignal® Chemiluminescent Substrate (Pierce) with a UVP BioSpectrum 500 Imaging System.

In another assay the test system is NF-κB. The assay can be described thus: Immunoblot of NF-κB activation after PPF. As to conditions: T98G and GBM43 cells treated with PPF. The protocol:
as §1, §2

The values below come from patent publication US10624895B2, “Methods of sensitizing a patient with glioma to a therapeutic agent by administering small hairpin RNA targeting PDZ-RHOGEF” (THE TRANSLATIONAL GENOMICS RESEARCH INSTITUTE, priority 2016, dated 2020).

As to `CCCn1cnc2c1c(=O)n(CCCCC(C)=O)c(=O)n2C` [PPF, 3-methyl-1-(5-oxohexyl)-7-propyl-3,7-dihydro-1H-purine-2,6-dione], the AKT phosphorylation result in the assay on AKT was “effectively decreased”. The “lamellipodia formation and membrane ruffling” value in assay [1] is recorded as “significantly decreased”. For the same molecule, the surviving fraction entry was “significantly decreased the surviving fraction” in the assay with T98G and GBM43 cells (5 μM PPF 24 hours then 250 μM TMZ 24 hours, compared to TMZ alone, T98G and GBM43); “significantly decreased the surviving fraction” in the assay on T98G and GBM43 cells (5 μM PPF 24 hours then 2Gy radiation, compared to 2Gy radiation alone). For the same molecule, in the assay with TROY (GBM10 and GBM43 cells, 5 μM PPF, varying lengths of time), the “TROY expression over time” value is listed as “decreased in a time-dependent manner”. In addition, the TROY expression entry in the assay with TROY (T98G cells, 1 μM PPF) was “significant suppression”; in the assay with TROY (T98G cells, PPF 1 to 20 μM, 6 hrs), “decreased in concentration dependent manner”; in the assay with TROY (T98G, GBM10, GBM43 cells, 5 μM PPF, 24 hrs), “effective in lowering TROY expression”. Further, the NF-κB phosphorylation result in the assay with NF-κB is reported as “effectively decreased”.
